# Measured values taken from US20190046469A1, “COMPOSITIONS AND METHODS FOR TREATING MOOD DISORDERS OR SKIN DISEASE OR DAMAGE” (priority 2012, published 2019).
# Tests used:
# [1] = system: OXT (Homo sapiens oxytocin/neurophysin I prepropeptide mRNA, NM_000915); experiment: Full thickness tissue DNA microarray screening, OXT gene expression; type: cell-based
# Source text: (§1) DNA microarrays were used to screen xanthohumol for changes in the expression of thousands of different genes. DNA microarrays are extremely powerful tools that allow users to analyze changes in gene expression by monitoring changes in the messenger ribonucleic acid (“mRNA”) of hundreds to thousands of genes in a single experiment. All cells function by using their genes to make protein products. This process starts by making an mRNA copy of the gene through a process called transcription. The mRNA copy is then translated into a protein that plays a functional role within the cell or the cell's environment. Since the process of gene expression is highly regulated, the amount of mRNA can be a good indicator of the level of activity for a specific gene. With the introduction of DNA microarrays, researchers can now rapidly obtain a much more global view of what is happening inside of a cell since the results of one or two array experiments can potentially generate data on changes in gene expression across the entire known human genome.
# (§2) This would result in a ratio of 1. If a treatment increases the expression of a gene, then the median intensity of the feature would be greater in the scan from the red laser than the green, resulting in a ration that is greater than 1. […] These broader ranges are a more conservative judging criterion and account for possible sources of variation in fluorescence intensity that are not associated with the treatment.
# (§3) In addition to the information on active ingredients and raw materials that the DNA microarray can provide, the arrays can be used to better characterize the mechanisms of action related to certain therapeutic categories. The array data also allows the verification that a gene of interest is expressed in a certain model before running an experiment. The following tables provide the data based on the ratio of means after 50 μL of a xanthohumol liquid formulation with a concentration of 5 mg/ml xanthohumol was used in the following experiment. RNA was isolated from the tissues for subsequent analysis via DNA microarrays.
# [2] = system: OXTR (Homo sapiens oxytocin receptor mRNA, NM_000916); experiment: Full thickness tissue DNA microarray screening, OXTR gene expression; type: cell-based
# Source text: as §1, §2, §3
# [3] = 50 μL of xanthohumol liquid formulation, 5 mg/ml, full thickness tissue, >=1.3 up-regulated, <=0.7 down-regulated
# [4] = 50 μL of xanthohumol liquid formulation, 5 mg/ml, green laser scan
# [5] = 50 μL of xanthohumol liquid formulation, 5 mg/ml, red laser scan (treated)
# [6] = ratio of means above 1.3 = up-regulated
structure (smiles),measurement,setting,value
COc1cc(O)c(CC=C(C)C)c(O)c1C(=O)/C=C/c1ccc(O)cc1 [xanthohumol],Ratio of Means (OXT),[1]; [3],2.488
same,F532 Median (OXT),[1]; [4],78
same,F635 Median (OXT),[1]; [5],171
same,regulation of OXT gene (in words),[1]; [6],significantly up-regulated
same,Ratio of Means (OXTR),[2]; [3],3.5
same,F532 Median (OXTR),[2]; [4],43
same,F635 Median (OXTR),[2]; [5],53
same,up-regulation of OXTR,[2]; DNA microarray,greater than 50%
same,regulation of OXTR gene (in words),[2]; [6],significantly up-regulated
